Results from US20070142396A1, “Treatment of pain with 1-[3-[4-(3-chlorophenyl)-1-piperazinyl]propyl]-5-methoxy-3,4-dihydro-2(1H)-quinolone or salt thereof” (Vela Pharmaceuticals, Inc., priority 2005, published 2007).

Legend:
Assay type in all cases: in vivo, rat
[1] = test system: rats with spinal nerve ligature (Chung neuropathic pain model); assay: Chung neuropathic pain model, tactile stimulation, second experiment (Example 3); settings: acute; for effect on force inducing paw withdrawal: p.o.
Procedure: (§1) For tactile stimulation, the animal was placed under an inverted Plexiglas® box (17×11×14 cm) on a grid floor. The tip of an electronic Von Frey probe (Bioseb, Model 1610, Chaville, France) was applied with increasing pressure to the non-lesioned hindpaw or the lesioned hindpaw. The force required to induce paw withdrawal was automatically recorded. This procedure was carried out three times for each paw, and the mean force per paw was calculated to provide basic scores per animal.
The rats used in this experiment were the same rats used in Example 2. The materials and methods for this experiment were identical to those for Example 2 with the following exceptions: there was a 1-week washout between the two experiments, and the rats weighed 290-403 g at the start of this experiment. Prior to receiving drug treatment, all animals were submitted to tactile stimulation and assigned to treatment groups matched on the basis of their pain response. No account was taken of the treatment administered during the first experiment in assigning animals to treatment groups for this experiment.
All of the substances were administered orally. Morphine, dissolved in distilled water, was administered at 128 mg/kg dose p.o. Rats were tested 30 minutes, 1 hour, 2 hours, and 4 hours after administration of the substances.

[2] = test system: rats with spinal nerve ligature (Chung neuropathic pain model); assay: Chung spinal nerve ligation (L5 and L6) neuropathic pain model, tactile stimulation with electronic Von Frey probe (Example 2); settings: for Force Inducing Paw Withdrawal (g) Lesioned Paw / Force Inducing Paw Withdrawal (g) Non-lesioned Paw: hypersensitivity test after 8 days of twice daily administration
Text: (§2) The Chung neuropathic pain model (Kim and Chung, Pain, 50: 355-363, 1992), employs spinal nerve ligation (SNL) in a rat. Tight ligature of spinal nerves in a rat is associated with hyperalgesia, allodynia and spontaneous pain. Antihyperalgesics reduce these chronic signs of pain hypersensitivity. Thus, the Chung model permits testing of the antihyperalgesic activity of compounds in rats with neuropathic pain. The Chung model constitutes a model for peripheral neuropathic pain in humans, and was employed as follows.
(§3) Male Rj: Wistar (Han) rats, weighing 264-369 g at the beginning of the experiment, were obtained from Elevage Janvier, 53940 Le Genest-Saint-Isle, France. The rats were acclimatized to laboratory conditions for at least 5 days before the surgery phase of the experiment. The rats were housed in groups of five in macrolon cages (41×25×14 cm) on wood litter (Litalabo—SPPS, 95100 Argenteuil, France) with free access to food (code 113—SAFE, 91360 Epinay-sur-Orge, France) and water until tested. The animal houses were maintained under artificial lighting (12 hours) between 7:00 AM and 7:00 PM in a controlled ambient temperature of 21±3° C., and with relative humidity maintained at 40-70%.
(§4) Rats (264-369 g) were anesthetized with sodium pentobarbital (50 mg/kg i.p.), and an incision at the L4-S2 level was made to expose the left L5 and L6 spinal nerves. A ligature was tied tightly around each nerve. The wound was then sutured. The rats received an i.m. injection of 50,000 IU penicillin G and were allowed to recover. At least 2 weeks after the surgery, when the chronic state was fully installed, rats were submitted consecutively to tactile and thermal stimulation of both the non-lesioned and the lesioned hindpaws.
(§5) Doses of OPC-14523 were prepared in stock solutions (weight per volume, W/V), then in dilutions (volume per volume, V/V), as appropriate. The compound was dispersed in 0.5% tragacanth in distilled water. Morphine was dissolved in physiological saline as a reference standard for treatment of pain. The solutions for the test and reference substances were prepared fresh on the day of the experiment.
(§6) The vehicle, OPC-14523, and reference (morphine) compound were each administered in a volume of 5 ml/kg body weight. The doses of OPC-14523 were expressed in mg of substance per kg body weight and administered orally (p.o.). The vehicle control was also administered orally. The dose of morphine was expressed in mg of hydrochloride salt per kg body weight and administered i.p.
(§7) Each animal was tested at 30 minutes, 1 hour, 2 hours and 4 hours after the administration of a substance. Testing occurred in the morning.
(§8) To evaluate chronic drug administration and hypersensitivity induction, animals received a second substance treatment in the afternoon, after acute testing. The animals then received twice-daily substance treatment for an additional 9 days. To test for induction of hypersensitivity, the animals were tested, on the ninth day, 30 minutes before the first substance administration in the morning. The effect of chronic administration was tested on the tenth day 30 minutes, 1 hour, 2 hours and 4 hours after the administration of the substance in the morning.
as §1
Prior to receiving drug treatment, all animals were submitted to tactile stimulation and assigned to treatment groups, matched on the basis of their pain response. Each treatment group consisted of eight rats. The testing was performed blind. […]

[3] = test system: rats with spinal nerve ligature (Chung neuropathic pain model); assay: Chung spinal nerve ligation (L5 and L6) neuropathic pain model, thermal stimulation (Example 2); settings: for Paw Withdrawal Latency (s) Lesioned Paw / Paw Withdrawal Latency (s) Non-lesioned Paw: hypersensitivity test after 8 days of twice daily administration
Text: as §2, §3, §4, §5, §6, §7, §8
An apparatus (Ugo Basile, Product reference: 7371, Comerio, Italy) consisted of six individual Plexiglas® boxes (17×11×14 cm) placed upon an elevated glass floor. A rat was placed in the box and left free to habituate for 10 minutes. Then, a mobile infrared radiant source was focused under the non-lesioned and lesioned hindpaws. The paw-withdrawal latencies were automatically recorded. Paw withdrawal interrupts the reflected radiation and switches off the counter and the light source. In order to prevent tissue damage, the test was terminated after 45 seconds if no reaction was noted.
Prior to receiving drug treatment, all animals were submitted to tactile stimulation and assigned to treatment groups, matched on the basis of their pain response. […]

With `COc1cccc2c1CCC(=O)N2CCCN1CCN(c2cccc(Cl)c2)CC1` [OPC-14523, 1-[3-[4-(3-chlorophenyl)-1-piperazinyl]propyl]-5-methoxy-3,4-dihydro-2(1H)-quinolone] the “change of force inducing paw withdrawal vs vehicle” value ([1]; 30 mg/kg p.o., lesioned paw, 30 minutes, p=0.10) was “+46%”, the “change of force inducing paw withdrawal vs vehicle” value ([1]; 30 mg/kg p.o., lesioned paw, 2 hours, p=0.11) was “+79%” and the “change of force inducing paw withdrawal vs vehicle” value ([1]; 100 mg/kg p.o., lesioned paw, 30 minutes, p=0.11) was “+76%”. The “effect on force inducing paw withdrawal” value ([1]; lesioned paw) was “did not significantly affect”, the “effect on force inducing paw withdrawal” value ([1]; non-lesioned paw) was “no clear effects” and the “change of force inducing paw withdrawal vs vehicle” value ([2]; acute, 100 mg/kg p.o., lesioned paw, 1 hour) was 107%. For the same compound, the “effect on force inducing paw withdrawal” value ([2]; acute, 100 mg/kg p.o., lesioned paw, 2 hours) was “tended to increase”, the “change of force inducing paw withdrawal vs vehicle” value ([2]; acute, 100 mg/kg p.o., non-lesioned paw, 4 hours, p<0.01) was −27% and the “effect on force inducing paw withdrawal” value ([2]; acute, p.o., other doses or time points) was “no significant effects”. The “effect on force inducing paw withdrawal” value ([2]; chronic, twice daily, after 10 days, p.o., lesioned or non-lesioned paw) was “did not have clear effects”, the “Force Inducing Paw Withdrawal (g) Lesioned Paw” value ([2]; 10 mg/kg p.o.) was 17.6 (NS) g and the “Force Inducing Paw Withdrawal (g) Non-lesioned Paw” value ([2]; 10 mg/kg p.o.) was 72.9 (NS) g. The “Force Inducing Paw Withdrawal (g) Lesioned Paw” value ([2]; 30 mg/kg p.o.) was 15.1 (NS) g, the “Force Inducing Paw Withdrawal (g) Non-lesioned Paw” value ([2]; 30 mg/kg p.o.) was 83.5 (NS) g and the “Force Inducing Paw Withdrawal (g) Lesioned Paw” value ([2]; 100 mg/kg p.o.) was 16.2 (NS) g. For the same compound, the “Force Inducing Paw Withdrawal (g) Non-lesioned Paw” value ([2]; 100 mg/kg p.o.) was 78.1 (NS) g, the “effect on force inducing paw withdrawal vs vehicle control” value ([2]; hypersensitivity test, repeated treatment at three different doses, lesioned or non-lesioned paw) was “no significant effects” and the induction of hypersensitivity ([2]; repeated administration, tactile and thermal stimulation) was “does not induce hypersensitivity”. The “change of paw-withdrawal latency vs vehicle” value ([3]; acute, 10 mg/kg p.o., 30 minutes, NS) was −57%, the “change of paw-withdrawal latency vs vehicle” value ([3]; acute, 10 mg/kg p.o., lesioned paw, 4 hours) was “+190%” and the “change of paw-withdrawal latency vs vehicle” value ([3]; acute, 30 mg/kg p.o., lesioned paw, 4 hours) was 259%. The “change of paw-withdrawal latency vs vehicle” value ([3]; acute, 100 mg/kg p.o., lesioned paw, 4 hours) was 270%, the “change of paw-withdrawal latency vs vehicle” value ([3]; acute, 100 mg/kg p.o., non-lesioned paw, p<0.05) was −27% and the “change of paw-withdrawal latency vs vehicle” value ([3]; chronic, 30 mg/kg, lesioned paw, 4 hours, p<0.05) was “+62%”. For the same compound, the “effect on paw-withdrawal latency” value ([3]; chronic, non-lesioned paw) was “no effect”, the “Paw Withdrawal Latency (s) Lesioned Paw” value ([3]; 10 mg/kg p.o.) was 4.5 (p < 0.01) s and the “Paw Withdrawal Latency (s) Non-lesioned Paw” value ([3]; 10 mg/kg p.o.) was 43.7 (NS) s. For the same compound, the “Paw Withdrawal Latency (s) Lesioned Paw” value ([3]; 30 mg/kg p.o.) was 19.9 (NS) s, the “Paw Withdrawal Latency (s) Non-lesioned Paw” value ([3]; 30 mg/kg p.o.) was 37 (NS) s and the “Paw Withdrawal Latency (s) Lesioned Paw” value ([3]; 100 mg/kg p.o.) was 22.3 (NS) s. The “Paw Withdrawal Latency (s) Non-lesioned Paw” value ([3]; 100 mg/kg p.o.) was 39.1 (NS) s, the “effect on paw-withdrawal latency vs vehicle control” value ([3]; hypersensitivity test, lesioned paw at other doses, non-lesioned paw at any dose) was “No effects” and the “change of paw-withdrawal latency vs vehicle” value ([3]; hypersensitivity test, repeated treatment 10 mg/kg p.o., lesioned paw, p<0.01) was −67%.
